The target of one test is Chimera 1 (Homo sapiens, UniProt P36544, M226I/T225V). The test is described as follows: [3H]A-585539 radioligand binding, HEK-293 membranes. Set-up: expressed in transfected cells. The conditions noted are these: membranes of HEK-293 cells expressing Chimera 1; read-out: Radioligand Binding KD ± SEM.
A further test concerns the target Chimera 2 (Homo sapiens, UniProt P36544, M226I/T225V). Description: [3H]A-585539 radioligand binding, HEK-293 membranes/homogenates. Set-up: expressed in transfected cells.

Read-outs that look alike come from different tables or passages of the source.

The values that follow come from patent US8759504B2, “Cholinergic/serotoninergic receptor and uses thereof” (AbbVie Inc., priority 2007, dated 2014).

Chain of Chimera 2 (P36544 with tags, fused parts or gaps T225V/M226I): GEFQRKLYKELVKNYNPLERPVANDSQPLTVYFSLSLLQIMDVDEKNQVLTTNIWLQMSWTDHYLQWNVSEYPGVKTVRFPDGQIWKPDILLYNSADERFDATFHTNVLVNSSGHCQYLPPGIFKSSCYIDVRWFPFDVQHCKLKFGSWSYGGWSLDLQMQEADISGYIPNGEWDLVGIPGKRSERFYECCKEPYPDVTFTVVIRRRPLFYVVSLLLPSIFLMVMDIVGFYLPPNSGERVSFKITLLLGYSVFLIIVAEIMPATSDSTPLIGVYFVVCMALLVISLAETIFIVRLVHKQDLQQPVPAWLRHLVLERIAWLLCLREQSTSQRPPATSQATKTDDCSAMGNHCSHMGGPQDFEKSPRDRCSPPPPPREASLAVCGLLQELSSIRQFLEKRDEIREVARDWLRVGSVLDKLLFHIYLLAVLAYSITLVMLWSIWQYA
Chain of Chimera 1 (P36544 with tags, fused parts or gaps T225V/M226I): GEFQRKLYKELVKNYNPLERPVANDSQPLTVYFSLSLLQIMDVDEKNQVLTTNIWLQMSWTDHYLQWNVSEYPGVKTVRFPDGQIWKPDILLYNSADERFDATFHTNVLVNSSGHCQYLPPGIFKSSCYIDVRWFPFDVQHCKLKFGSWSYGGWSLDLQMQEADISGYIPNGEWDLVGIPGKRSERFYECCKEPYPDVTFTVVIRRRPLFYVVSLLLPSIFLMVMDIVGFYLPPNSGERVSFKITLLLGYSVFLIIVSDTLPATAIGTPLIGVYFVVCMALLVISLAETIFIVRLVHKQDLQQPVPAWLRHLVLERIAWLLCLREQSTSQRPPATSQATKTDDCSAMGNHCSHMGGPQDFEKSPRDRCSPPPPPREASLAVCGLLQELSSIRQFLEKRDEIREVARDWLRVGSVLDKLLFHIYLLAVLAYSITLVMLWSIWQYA

With `C[N+]1(C)C[C@@H]2C[C@H]1CN2c1ccc(-c2ccccc2)nn1.[I-]` [[^3H]A585539, [^3H]-(S,S)-2,2-dimethyl-5-(6-phenyl-pyridazin-3-yl)-5-aza-2-azonia-bicyclo[2.2.1]heptane iodide], the Kd on Chimera 1 was 0.65 nM; on Chimera 2 (10 μM genistein, 4 μg/well, read-out: Kd, saturation binding), 0.1 ± 0.01 nM; at Chimera 2 (10 μM genistein, 20 μg/well, read-out: Kd, saturation binding), 0.18 ± 0.01 nM; on Chimera 2 (absence of genistein, read-out: Kd, representative saturation binding) it was 0.15 nM; on Chimera 2 (membranes of HEK-293 cells expressing Chimera 2, read-out: Radioligand Binding KD ± SEM), 0.17 nM; at Chimera 2 (presence of 10 μM genistein, read-out: Kd, representative saturation binding) it was 0.17 nM. Also, the Kd stood at 0.11 ± 0.01 nM on Chimera 2 (without genistein, 4 μg/well, read-out: Kd, saturation binding) and 0.17 ± 0.02 nM at Chimera 2 (without genistein, 20 μg/well, read-out: Kd, saturation binding). Also, the “Bmax, saturation binding” value at Chimera 2 (10 μM genistein, 4 μg/well) was determined as 6058.0±809.3 fmol/mg protein; on Chimera 2 (10 μM genistein, 20 μg/well), 7251.0±587.8 fmol/mg protein; at Chimera 2 (without genistein, 4 μg/well), 5979.0±530.3 fmol/mg protein; at Chimera 2 (without genistein, 20 μg/well), 7016.0±798.2 fmol/mg protein. Also, the results for the “Bmax, representative saturation binding” value on Chimera 2 (absence of genistein) and at Chimera 2 (presence of 10 μM genistein) were 6014 fmol/mg protein and 6528 fmol/mg protein, respectively. Besides, at Chimera 2 (homogenates of HEK-293-Chimera 2 cells), the Bmax is on record as 29167 fmol/mg protein.
